In patent publication US9580426B2, “Compounds that expand hematopoietic stem cells” (Novartis AG, priority 2008, dated 2017):

Assays:
mPB-derived CD34+ cell = assay: 7 day culture with AHR antagonists, expansion of CD34+ cells; type: cell-based, human; conditions: 0.75 μM; 7 days
Protocol: To further explore the role of AHR signaling in HSCs two other AHR antagonists (alpha-naphthoflavone and CH-223191) were tested. Both compounds lead to dose dependent increases in the number of CD34^+ cells when cultured with mPB-derived CD34^+ cell for 7 days: inclusion of 1 μM CH223191 afforded a 2.2-fold expansion of CD34^+ cells; 0.75 μM α-naphthoflavone afforded a 1.9-fold expansion of CD34^+ cells while 0.75 μM Example 1 afforded a 3.4-fold expansion of total CD34^+ cells. […] Forty-eight hours following transduction, CD34+GFP^+ cells were purified by cell sorting and the levels of AHR were determined by qPCR. Both AHR targeting shRNAs led to decreases in AHR expression following transduction (81% with sh111 and 51% with sh242). These decreases were not seen in cells lacking GFP or in cells transduced with control virus.

AHR = biological target: T1, AHR (Mus musculus, UniProt P30561); assay: Dioxin induced AHR dependent transcription, murine cells; type: cell-based
T1 construct: endogenous in cells; host or cells: unnamed murine cells
T1 sequence (P30561 10-848): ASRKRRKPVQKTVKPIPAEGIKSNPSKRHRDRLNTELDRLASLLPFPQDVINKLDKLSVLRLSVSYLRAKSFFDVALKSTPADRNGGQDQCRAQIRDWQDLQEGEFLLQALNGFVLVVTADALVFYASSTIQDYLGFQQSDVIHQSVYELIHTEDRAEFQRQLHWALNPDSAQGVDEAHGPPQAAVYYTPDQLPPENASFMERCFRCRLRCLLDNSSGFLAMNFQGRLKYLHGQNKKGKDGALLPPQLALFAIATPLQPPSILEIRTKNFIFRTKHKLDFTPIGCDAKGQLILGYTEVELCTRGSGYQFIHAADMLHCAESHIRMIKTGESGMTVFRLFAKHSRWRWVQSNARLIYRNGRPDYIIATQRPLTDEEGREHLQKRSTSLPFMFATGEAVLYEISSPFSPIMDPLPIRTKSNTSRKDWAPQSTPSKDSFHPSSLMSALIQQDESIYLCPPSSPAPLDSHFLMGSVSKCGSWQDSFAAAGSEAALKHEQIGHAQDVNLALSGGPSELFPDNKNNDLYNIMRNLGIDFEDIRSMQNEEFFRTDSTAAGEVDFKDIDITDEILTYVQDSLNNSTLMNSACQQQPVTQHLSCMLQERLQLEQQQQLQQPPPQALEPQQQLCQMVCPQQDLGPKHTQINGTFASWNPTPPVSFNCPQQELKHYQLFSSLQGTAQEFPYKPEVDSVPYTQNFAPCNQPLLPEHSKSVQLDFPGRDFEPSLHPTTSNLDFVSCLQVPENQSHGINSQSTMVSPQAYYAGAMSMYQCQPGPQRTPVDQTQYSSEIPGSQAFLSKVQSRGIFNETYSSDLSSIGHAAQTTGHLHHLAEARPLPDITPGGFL
Protocol: Further, the ability of Example 1 to block 2,3,7,8-tetrachlorodibenzo-p-dioxin (TCDD, dioxin)-mediated CYP1B1 mRNA expression by qPCR in mPB-derived CD34^+ cells was determined. Treatment with TCDD (3 nM) caused a 4.5-fold increase in the level of CYP1B1 mRNA compared with the vehicle control (0.01% toluene). […] To determine the effects of Example 1 in AHR transcription the ability of Example 1 to inhibit a dioxin-induced AHR dependent luciferase reporter gene assay was tested.

murine HSC = assay: Activity on murine HSC; type: cell-based

agonist activity (AHR dependent transcription) (AHR): only weak agonist activity
inhibition of dioxin induced transcription (AHR): only weakly inhibited
SMILES: CC(C)n1cnc2c(NCCc3ccc(O)cc3)nc(-c3csc4ccccc34)nc21 [Example 1, 4-(2-(2-(benzo[b]thiophen-3-yl)-9-isopropyl-9H-purin-6-ylamino)ethyl)phenol]
expansion of CD34+ cells (mPB-derived CD34+ cell): 3.4 fold
activity on murine HSC (murine HSC): lack of activity
